Assay results: article PMC3043256 (Cancer Chemotherapy and Pharmacology, 2010)
Like-named read-outs stand apart in the source and are kept apart here.

How the values were obtained:
[1] = cited from earlier work
[2] = Midazolam pharmacokinetics; type: in vivo, human
[3] = type: in vivo, human; conditions: for Increase of sunitinib exposure by grapefruit juice: model estimate; for AUC(0-t): AUC0–24 h
[4] = tested on: organic anion transporting polypeptides (OATPs); conditions: in vitro; cited from earlier work
[5] = cited from earlier work; remark: listed apart in the source
ABCB1 = conditions: in vitro; cited from earlier work
[6] = cited from earlier work; remark: listed apart in the source
ABCG2 = conditions: in vitro; cited from earlier work
[7] = Literature clinical pharmacokinetics of sunitinib; conditions: follows from half-life ~50 h
[8] = final population PK model, cancer patients
[9] = human, plasma, oral, sunitinib with grapefruit juice when simultaneously taken, mean (range)
[10] = sunitinib with grapefruit juice when simultaneously taken, mean (range)

Cc1cn(-c2cc(NC(=O)c3ccc(C)c(Nc4nccc(-c5cccnc5)n4)c3)cc(C(F)(F)F)c2)cn1 [nilotinib]
Effect of grapefruit juice on drug exposure [1]: increase

Cc1ncc2n1-c1ccc(Cl)cc1C(c1ccccc1F)=NC2 [midazolam]
AUC(0-t) ([2]; human, plasma, po, 7.5 mg, Midazolam AUC0–24 h, without GJ, single oral 7.5 mg midazolam, mean (±SEM)): 122 ng·h/mL
Increase of midazolam exposure (AUC0–24 h) by GJ ([2]; second vs first PK day): ~ 50%

CCN(CC)CCNC(=O)c1c(C)[nH]c(/C=C2\C(=O)Nc3ccc(F)cc32)c1C [sunitinib, Sunitinib malate]
Increase of sunitinib exposure by grapefruit juice ([3]; GJ consumed 7 h before the sunitinib dose): ~ 8.9%
Absorption lag time, estimate [3, 8]: 0.487 h
ka (absorption rate constant), estimate [3, 8]: 0.468 h⁻¹
Cl/F (apparent clearance), estimate ([3]; final population PK model, cancer patients, oral sunitinib 25-50 mg once daily): 50.5 L/h
Tmax ([3]; human, plasma, oral): 8.2 h
Vd/F ([3]; human, plasma, oral): 3210 L
half-life ([3]; human, plasma, oral): 53 h
AUC(0-t) [3, 9]: 1240 ng·h/mL
AUC(0-t) ([3]; human, plasma, oral, sunitinib without grapefruit juice, steady state, mean (range)): 1120 ng·h/mL
Cmax [3, 9]: 14.4 ng/mL
Cmax ([3]; human, plasma, oral, sunitinib without grapefruit juice, mean (range)): 13 ng/mL
Increase of sunitinib exposure by grapefruit juice ([3]; sunitinib 24 h after last GJ consumption): ~ 5.3%
Increase of sunitinib exposure by grapefruit juice ([3]; sunitinib 72 h after last GJ consumption): ~ 1.3%
Increase of sunitinib exposure by grapefruit juice ([3]; sunitinib started 1 week after last GJ consumption): ~ 0.07%
T max [3, 10]: 8.2 (2.8–12.4) h
t 1/2 (elimination half-life) [3, 10]: 53 (12–107) h
Affinity for OATPs [4]: no affinity
Protein binding in vitro [5]: extensively protein bound
Substrate of drug transporter ABCB1 (ABCB1): moderate substrate
Apparent volume of distribution [6]: ~ 2,000 liters
Effect of food intake on pharmacokinetics [6]: does not affect
Interpatient variability in sunitinib clearance [6]: ~ 40%
half-life [6]: ~ 50 h
Substrate of drug transporter ABCG2 (ABCG2): moderate substrate
Time to reach steady-state PK [7]: ~ 8 days
